In ChEMBL document CHEMBL1127582, “Novel 3 alpha-(diphenylmethoxy)tropane analogs: potent dopamine uptake inhibitors without cocaine-like behavioral profiles” (J Med Chem, 1994):

Columns and labels:
Rattus norvegicus = species on record: Rattus norvegicus; assay: Compound was evaluated for its ability to block the [3H]-Dopamine uptake in rat caudate-putamen; format: functional, organism-based
[1] = molecular target: Sodium-dependent dopamine transporter (Rattus norvegicus, UniProt P23977); assay: Compound was evaluated for its ability to displace [3H]WIN-35428 binding in rat caudate-putamen; format: tissue-based
Sodium-dependent dopamine transporter, sequence (P23977 whole entry): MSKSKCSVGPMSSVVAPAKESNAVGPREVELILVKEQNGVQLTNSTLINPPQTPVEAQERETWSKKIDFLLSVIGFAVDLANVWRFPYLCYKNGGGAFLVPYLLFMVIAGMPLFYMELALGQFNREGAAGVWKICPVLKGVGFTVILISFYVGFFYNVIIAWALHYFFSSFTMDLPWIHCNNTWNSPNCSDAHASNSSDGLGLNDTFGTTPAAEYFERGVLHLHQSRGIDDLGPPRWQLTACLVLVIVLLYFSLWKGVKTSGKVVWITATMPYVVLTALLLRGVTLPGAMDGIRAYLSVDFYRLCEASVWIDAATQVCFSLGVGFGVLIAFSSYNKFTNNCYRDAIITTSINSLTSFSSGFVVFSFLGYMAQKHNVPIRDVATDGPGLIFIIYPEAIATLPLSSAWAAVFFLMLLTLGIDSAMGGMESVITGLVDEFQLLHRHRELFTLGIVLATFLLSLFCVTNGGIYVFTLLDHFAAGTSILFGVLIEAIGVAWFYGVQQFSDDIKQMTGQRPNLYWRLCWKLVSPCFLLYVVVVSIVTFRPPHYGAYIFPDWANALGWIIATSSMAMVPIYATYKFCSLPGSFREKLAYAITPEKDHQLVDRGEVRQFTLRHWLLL

Row | SMILES | IC50 (Rattus norvegicus) [nM] | Ki [1] [nM]
1 | CN1[C@@H]2CC[C@H]1C[C@@H](OC(c1ccccc1)c1ccc(Cl)cc1)C2 (some centres undefined) | 115 | 30
2 | CN1C2CCC1CC(OC(c1ccccc1)c1ccc(Cl)cc1)C2 (centres undefined) | 3520 | 854
3 | COc1ccc(C(OC2CC3CCC(C2)N3C)c2ccc(OC)cc2)cc1 (centres undefined) | 2880 | 2000
4 | COc1ccc(C(OC2CC3CCC(C2)N3C)c2ccccc2)cc1 (centres undefined) | 468 | 78.4
5 | Fc1ccc(C(OCCN2CCN(CCCc3ccccc3)CC2)c2ccc(F)cc2)cc1 [VANOXERINE] | 5 | 
